Tests used:
[1] = test system: blood glucose levels in diabetic (db/db) mice; experiment: Blood glucose lowering in diabetic db/db mice; assay type: in vivo, db/db (C57BL/KsJ) mouse; conditions: p.o. by gavage, 4 doses, difference between mean percent change of vehicle and drug treated group; for change in vivo at 100 mg/kg: Mus musculus, po, read-out: Blood Glucose Levels % Change from Vehicle
Protocol: The animals are obese, glucose intolerant and have fasting hyperglycemia which is sometimes accompanied by a paradoxical hyperinsulinemia.
On the morning of Day 1, 12-15 mice [male db/db (C57BLKsJ), Jackson Laboratories, 2 to 7 months of age and body weight 35 to 60 g] were fasted for 4 hours, weighed and a baseline blood sample was collected from the tail-tip of each mouse without anesthesia, placed directly into a fluoride-containing tube, mixed and maintained on ice. Food was then returned to the mice. The plasma was separated and levels of glucose in plasma determined by the Abbott VP Analyzer. Because of the variable plasma glucose levels of the db/db mice, the mice were randomly assigned into 3-5 groups (4-5 mice per group) of equivalent mean plasma glucose levels:
On the afternoon of Days 1, 2 and 3 the vehicle, control or test drugs were administered (p.o.) to the ad libitum fed mice. The positive control, ciglitazone [(±)-5-[4-[(1-methylcyclohexyl]benzyl]-thiazolidine-2,4-dione] see Fujita et al. Diabetes, 32, 804 (1983), was given by gavage at a dose of 100 mg/kg/day. The test compounds were given by gavage at a dose of 100 mg/kg/day. The fourth and final dose was administered on the morning of day 4, after the mice had been fasted for 18 h. A blood sample was collected immediately preceeding the last dose, followed by samples collected at 90 and 120 min after drug administration. Insulin is immediately administered to each mouse after the 120 min sample. Serial blood samples were collected at 45 and 120 min after administration. The plasma was separated and the levels of glucose in plasma determined by the Abbot VP analyzer.
Analysis of variance followed by Dunnett's multiple comparison (one-sided) was used to estimate the degree of statistical significance of the difference between the vehicle control group and the individual drug-treated groups. A drug was considered active, at the specific dose administered, if the difference of the plasma glucose level has a p<0.10.
The actual difference between the mean percent change of blood glucose levels of the vehicle and the drug treated group is reported in Table 1.

[2] = test system: cholesterol absorption; experiment: Cholesterol absorption in normal rats (oral [14C] cholesterol, serum radioactivity); assay type: in vivo; conditions: serum radioactivity at 6 hr
Protocol: Cholesterol absorption was measured in normal rats following simultaneous oral doses of the test compounds and radioactive cholesterol according to the method of Cayen and Dvornik except that [^14 C] cholesterol in propylene glycol and olive oil (vehicle for test compound) were used. Serum radioactivity was measured at 6 hr [Cayen, M. N. and Dvornik, D., J. Lipid Res., 20, 162 (1979)].

[3] = test system: gastric mucosal lesions produced by ethanol; experiment: Ethanol induced cytotoxicity in rats (gastric mucosal lesions); assay type: in vivo, Male Sprague-Dawley rats; conditions: Rattus norvegicus, oral, 1 hour prior to ethanol, read-out: % Inhibition (of lesion formation)
Protocol: The purpose of this assay is to evaluate the effectiveness of the compounds of the present invention in preventing the formation of gastric mucosal lesions produced by ethanol. The assay is based on A. Robert, et al: Gastroenterology, 77: 433-443, 1979.
Male Sprague-Dawley rats weighing between 120-150 grams were fasted for 24 hours prior to the experiment (water ad libitum). At least two hours before dosing, the animals were placed in individual cages with wire grid bottoms and denied access to water.
Ethanol was administered orally at 1 mL per animal. The compounds of the present invention were dissolved in water or suspended in water with 0.5% carboxymethylcullulose and administered orally at a dose based on an appropriate standard giving ED50 to ED75 response of cytoprotective activity.
The rats were randomly divided into groups of equal number, ordinarily 10 to a group. The rats were weighed and the individual weights were recorded. Exactly 1 hour prior to the administration of ethanol, the screening group was treated with the compounds of the present invention, and the control group with the vehicle. One hour after administering the ethanol the animals were sacrificed by cervical dislocation. The stomachs were removed, cut along the greater curvature and cleansed of all debris with tap water. The stomachs were set aside and kept moist with saline until the lesions were scored.
Macroscopic lesions on the gastric mucosa were numerically graded. The final grade assigned a stomach was the sum of all the grades.
Streaks longer than 6 mm are graded in multiples of 2 mm.
The degree of cytotoxicity occurring in each group is represented as the mean± S.E.M.
The mean of each treatment group was compared to the control group and expressed as the % inhibition of lesion formation.

Row | Compound | change in vivo at 100 mg/kg [1] | inhibition in vivo at 25 mg/kg [3] | other results
1 | CC1(C)OC(CS(=O)(=O)c2ccccc2)=CC1=O [Example 7, 2,2-Dimethyl-5-(phenylsulfonyl)methyl-3(2H)-furanone] | -38% | – | decrease in cholesterol absorption ([2]; 250 mg/kg): 58%
2 | CC1(C)OC(C(C)(C)S(=O)(=O)c2ccccc2)=CC1=O [Example 8, 2,2-Dimethyl-5-[1-methyl-1-(phenylsulfonyl)ethyl]-3(2H)-furanone] | -42% | – | –
3 | CC1(C)OC=C(CS(=O)(=O)c2ccc([N+](=O)[O-])cc2)C1=O [Example 4, 2,2-Dimethyl-4-[(4-nitrophenyl)sulfonyl]methyl-3(2H)-furanone] | -30% | – | –
4 | O=C1C(CS(=O)(=O)c2ccccc2)=COC12CCCCC2 [Example 6] | -25% | – | –
5 | N-[[(4,5-Dihydro-5,5-dimethyl-4-oxo-3-furanyl)methyl]sulfonyl]phenylacetamide [Example 5] | – | – | Blood Glucose Levels % Change from Vehicle ([1]; 100 (mg/kg)): -23%
6 | CC1(C)OC=C(CS(=O)(=O)c2ccccc2)C1=O [Example 1, 2,2-Dimethyl-4-(phenylsulfonyl)methyl-3(2H)-furanone] | -30% | – | decrease in cholesterol absorption ([2]; 100 mg/kg): 79%
7 | CC1(c2ccc(Cl)cc2)OC=C(CS(=O)(=O)C(C)(C)C)C1=O (stereo not drawn) [Example 19, 4-[(1,1-Dimethylethyl)sulfonyl]methyl-2-(4-chlorophenyl)-2-methyl-3(2H)-furanone] | – | – | inhibition in vivo at 10 mg/kg [3]: 45%
8 | CC1(C)OC(CS(=O)(=O)c2ccc(Cl)cc2)=CC1=O [Example 11, 5-[(4-Chlorophenyl)sulfonyl]methyl-2,2-dimethyl-3(2H)-furanone] | – | 44% | –
9 | CC1(C)OC=C(CS(=O)(=O)C(C)(C)C)C1=O [Example 17, 4-[(1,1-Dimethylethyl)sulfonyl]methyl-2,2-dimethyl-3(2H)-furanone] | – | 87% | –
10 | CC1(C)OC(CS(C)(=O)=O)=CC1=O [Example 13, 2,2-Dimethyl-5-(methylsulfonyl)methyl-3(2H)-furanone] | – | 54% | –
11 | CC1(C)OC=C(CS(=O)(=O)c2ccc(C(C)(C)C)cc2)C1=O [Example 16, 2,2-Dimethyl-4-[[4-(1,1-dimethylethyl)phenyl]sulfonyl]methyl-3(2H)-furanone] | – | 30% | –
12 | CC1(C)OC=C(CS(=O)(=O)c2ccc(F)cc2)C1=O [Example 15, 4-[(4-Fluorophenyl)sulfonyl]methyl-2,2-dimethyl-3(2H)-furanone] | – | 42% | –
13 | CC1(C)OC=C(CS(=O)(=O)c2cccc3ccccc23)C1=O [Example 2, 2,2-Dimethyl-4-[(1-naphthalenyl)sulfonyl]methyl-3(2H)-furanone] | -21% | – | –
14 | COc1ccccc1S(=O)(=O)CC1=COC(C)(C)C1=O [Example 3, 4-[(2-Methoxyphenyl)sulfonyl]methyl-2,2-dimethyl-3(2H)-furanone] | -21% | – | –
15 | CC1(c2ccccc2)OC(CS(=O)(=O)c2ccccc2)=CC1=O (stereo not drawn) [Example 10, 2-Methyl-2-phenyl-5-(phenylsulfonyl)methyl-3(2H)-furanone] | -19% | – | decrease in cholesterol absorption ([2]; 250 mg/kg): 35%
16 | CC1(C)OC(CS(=O)(=O)c2ccc(F)cc2)=CC1=O [Example 12, 5-[(4-Fluorophenyl)sulfonyl]methyl-2,2-dimethyl-3(2H)-furanone] | – | 6% | –
17 | CC1(c2ccc(F)cc2)OC=C(CS(=O)(=O)C(C)(C)C)C1=O (stereo not drawn) [Example 18, 4-[(1,1-Dimethylethyl)sulfonyl]methyl-2-(4-fluorophenyl)-2-methyl-3(2H)-furanone] | – | – | inhibition in vivo at 10 mg/kg [3]: 80%
18 | CC1(c2ccccc2)OC=C(CS(=O)(=O)C(C)(C)C)C1=O (stereo not drawn) [Example 20, 4-[(1,1-Dimethylethyl)sulfonyl]methyl-2-methyl-2-phenyl-3(2H)-furanone] | – | 76% | –
19 | CC1(C)OC(CS(=O)(=O)c2ccc(C(C)(C)C)cc2)=CC1=O [Example 14, 2,2-Dimethyl-5-[[4-(1,1-dimethylethyl)phenyl]sulfonyl]methyl-3(2H)-furanone] | – | 43% | –
20 | CC1(COc2ccc(CC3SC(=O)NC3=O)cc2)CCCCC1 (racemic) [Ciglitazaone, (±)-5-[4-[(1-methylcyclohexyl]benzyl]-thiazolidine-2,4-dione, reference compound] | -50 to -24% | – | –
21 | CC1(C)OC(C2(S(=O)(=O)c3ccccc3)CCCC2)=CC1=O [Example 9, 2,2-Dimethyl-5-[1-(phenylsulfonyl)-1-cyclopentyl]-3(2H)-furanone] | -25% | – | –
